Test results taken from patent US7041678B2 (priority 1999, dated 2006).
Entries after “also recorded” stand apart in the source; their conditions may differ.

Key:
tri5 promoter = assay type: cell-based, Gibberella zeae
ipnA promoter = assay type: cell-based, Aspergillus nidulans
aflatoxin biosynthesis = assay type: cell-based, Aspergillus parasiticus SU-1
ver-1 promoter = assay: Transcription from the ver-1 promoter; assay type: cell-based, Aspergillus parasiticus
nor-1 promoter [1] = assay type: cell-based, Aspergillus parasiticus
nor-1 promoter [2] = assay type: cell-based, Aspergillus parasiticus; remark: listed apart in the source
nor-1 gene = assay type: cell-based, Aspergillus parasiticus SU-1

CCCCC/C=C/CCCCCC/C=C/C=C/C(=O)N1CCCCC1 [Cp2]
Transcription from the tri5 promoter (GUS) (tri5 promoter): inhibit transcription; also recorded: inhibited
Transcription from the ipnA promoter (GUS) (ipnA promoter): inhibit transcription; also recorded: inhibited
Concentration that appeared to completely inhibit biosynthesis of aflatoxin (aflatoxin biosynthesis): greater than 26 μg/ml
Amounts of aflatoxins B1 and G1 (aflatoxin biosynthesis; 2.6-78 μg/ml, 48 hours): reduction
Transcription from the ver-1 promoter (ver-1 promoter): inhibit transcription
Fungus growth on TLC plates (nor-1 promoter [1]): Fungal growth was seen; also recorded: did not inhibit fungus growth
Inhibition of GUS in TLC bioassay (nor-1 promoter [1]): inhibitory properties
Transcription from the nor-1 promoter (nor-1 promoter [2]): inhibit transcription
Transcription of the nor-1 gene (nor-1 gene): inhibits
nor-1 transcription at lower concentrations (nor-1 gene): did not completely inhibit
